In EPA's ToxRefDB 2:

Assays:
[1] = tested on: rat; settings: Sub-acute repeat dose toxicity; Oral; Gavage/Intubation; dose end: 7 day; group: systemic; systemic / clinical chemistry / cholesterol / cholesterol + systemic / clinical chemistry / gamma glutamyl transferase (ggt) / gamma …
[2] = tested on: dog; settings: Chronic toxicity, beagle, Oral, Gavage/Intubation, dose end: 274 day, group: systemic
[3] = tested on: rat; settings: Sub-acute repeat dose toxicity; Oral; Feed; dose end: 14 day; group: systemic; systemic / in life observation / clinical signs / defecation + systemic / in life observation / clinical signs / hunched posture + systemic…
[4] = systemic / in life observation / clinical signs / defecation (diarrhea) + systemic / in life observation / clinical signs / soft stools
[5] = systemic / in life observation / clinical signs / defecation (diarrhea) + systemic / in life observation / clinical signs / soft stools + …

Molecule `CCc1nn(CCO)c(CC)c1Oc1cc(C#N)cc(C#N)c1` [Lersivirine] has an LOAEL [1] of over 35 mg/kg/day, an NEL [1] of under 35 mg/kg/day and an NOAEL [1] of at least 35 mg/kg/day. It also gave an LEL [2, 4] of 5 mg/kg/day, an NEL [2, 4] of under 5 mg/kg/day and an LOAEL [2, 5] of over 45 mg/kg/day. For the same molecule, the NOAEL [2, 5] was at least 45 mg/kg/day, the LOAEL [3] was over 1500 mg/kg/day and the NEL [3] was 750 mg/kg/day. For the same molecule, the NOAEL [3] was at least 1500 mg/kg/day.
